According to patent publication US20260240968A1, “METHODS AND MODIFICATIONS FOR REDUCING INNATE IMMUNE RESPONSES TO RNA” (The Board of Trustees of the Leland Stanford Junior …, priority 2023, published 2026):

Experiments:
HEK293 cells [1] = experiment: Spontaneous restoration of translation of cloaked GFP-mRNA (green fluorescence) in HEK293 cells; settings: normal cells (HEK293)
Description: (§1) Thus, we investigated whether adducts by N,N-dimethylglycine acylimidazole can spontaneously release within the cells. To explored this, we employed cloaked mRNAs encoding a green fluorescence protein (GFP) (FIG. 6).
We screened these acylimidazole reagents for spontaneous restoration of mRNA translation in HEK293 cells by transfection with d2GFP-mRNA aliquots that were acylated with these acylimidazole reagents at various levels of 2′-modification. We monitored the green fluorescence signal in HEK293 cells over three days.

ISG15 = experiment: RT-qPCR of ISG15 mRNA expression (Type I innate immune response via the RIG-1 pathway) in HEK293 cells lipofected with eGFP-mRNA; format: cell-based, human; settings: HEK293 lipofected by eGFP-mRNA with or without cloaking by DMG-Im
Description: Transfection of in vitro transcribed RNA can trigger a potent Type I innate immune response in HEK293 cells (PMID: 30011268). Next, we investigated whether cloaking may modulate such response in HEK293 cells. To do this, HEK293 cells were lipofected by eGFP-mRNA with or without cloaking by DMG-Im. We measured the mRNA expression level of ISG15, an activation marker downstream of Type I innate immune response via the RIG-1 pathway.
Transfection of in vitro transcribed RNA can trigger a potent Type I innate immune response in HEK293 cells (PMID: 30011268). Next, we investigated whether cloaking may modulate such response in HEK293 cells. To do this, HEK293 cells were lipofected by eGFP-mRNA with or without cloaking by DMG-lm. We measured the mRNA expression level of ISG15, an activation marker downstream of Type I innate immune response via the RIG-1 pathway.

SW480 cells = settings: cancerous cells (SW480); cloaked mRNA
Description: as §1

HEK293 cells [2] = experiment: Luminex human 48-plex analysis of cytokines and immune activation markers released from HEK293 cells lipofected with eGFP-mRNA with or without cloaking; format: cell-based
Description: As an initial assessment of how cloaking affects the innate immune responses of mRNA, we measured the release of cytokines and immune activation markers from HEK293 cells that were lipofected by eGFP-mRNA with or without cloaking. HEK293 cells were transfected with 2 μg of mRNA with lipofectamine MessengerMax. […] In comparison. […] The translation of eGFP-mRNA was insignificant at this time (6 hours post-transfection), so the release of these immunomodulatory cytokines/chemokines is largely due to cells sensing the mRNA.
We further evaluated the effect of 2′-acylation on long-term immune response with Luminex human 48-plex assays in HEK293 cells that were transfected with modified eGFP-mRNA (FIG. 3 and FIG. 4).
We next investigated whether the chemical structure of acylating reagents may differentially modulate certain innate immune response pathways. […] Because the maximum level of cloaking varied among these reagents, we proceeded to equimolarly cloak at ~50% of unpaired accessible 2′-hydroxyls of eGFP-mRNA with a similar level of modification. We measured the release of cytokines and immune activation markers from HEK293 cells that were lipofected by modified eGFP-mRNA with or without cloaking. HEK293 cells were transfected with 2 μg of mRNA aliquots with lipofectamine MessengerMax. […] Thus, acylating reagents with diverse chemical structures can differentially modulate certain innate immune-responsive pathways.

[3] = long-term immune response, HEK293 transfected with modified eGFP-mRNA

Description for HeLa cells: as §1

Structure (SMILES): CN(C)CC(=O)n1ccnc1 [DMG-Im, N,N-dimethylglycine acylimidazole]
- translation of GFP-mRNA with N,N-dimethylglycine adducts (HEK293 cells [1]): spontaneously restored
- extension of the translational lifespan of mRNA encoding destabilized green fluorescent protein d2GFP (HeLa cells; HeLa cells, d2GFP-mRNA cloaked with DMG-Im): 31%
- translation of GFP-mRNA with N,N-dimethylglycine adducts (HeLa cells; cancerous cells (HeLa), cloaked mRNA): spontaneously restored
- mRNA expression level of ISG15 (ISG15): almost fully suppressed
- translation of GFP-mRNA with N,N-dimethylglycine adducts (SW480 cells): spontaneously restored
- expression of some proinflammatory cytokines and immune activation markers over time (HEK293 cells [2]; FIGS. 3A-3B, cloaking by DMG-Im): potently modulates
- release of proinflammatory chemokines and cytokines, including VEGF, RANTES/CCL5, PDGFAA, and IL8 (HEK293 cells [2]; HEK293 transfected with 2 μg of eGFP-mRNA, lipofectamine MessengerMax, six hours post-transfection): potently suppressed
- expression profiles of immune response mediators including type I interferon, CCL5, IL-8, IL-3, VEGF (HEK293 cells [2]; RNA cloaked with the R group, FIGS. 9 and 10): distinct expression profiles
- expression of many mRNA-stimulated cytokines (HEK293 cells [2]; cloaked vs unmodified eGFP-mRNA, six hours post-transfection): not significantly modulated
- reduction of the release of proinflammatory cytokines and activation (VEGF, RANTES/CCL5, PDGFAA, IL8) (HEK293 cells [2]; eGFP-mRNA with intermediate cloaking (~50% of unpaired 2′-hydroxyls) vs unmodified, 2 μg, six hours post-transfection): ≤ 90%
- release of Granulocyte-macrophage colony-stimulating factor (GMCSF) over time (HEK293 cells [2]; [3]): increasingly suppressed overtime
- release of proinflammatory Chemokine ligand 5 (CCL5) over time (HEK293 cells [2]; [3]): increasingly suppressed overtime
- secretion of Vascular endothelial growth factor (VEGF) over time (HEK293 cells [2]; [3]): increasingly less suppressed over time
